Reference: patent publication US6096707A, “Integrin binding peptide and use thereof” (BioTie Therapies Ltd., priority 1997, dated 2000)
Positions of bridges follow the written chain, without caps; N, C: chain ends. Residues, ends and D or L forms follow the SMILES beside them.

Target: T1, human recombinant integrin α2I domain (rα2I) (Homo sapiens, UniProt P17301)
T1 construct: GST (glutathione S-transferase, pGEX2T) (N, cleaved yes); made in house; host or cells: E. coli BL21 (pJKα2I, pGEX2T backbone)
T1 sequence (P17301 153-368): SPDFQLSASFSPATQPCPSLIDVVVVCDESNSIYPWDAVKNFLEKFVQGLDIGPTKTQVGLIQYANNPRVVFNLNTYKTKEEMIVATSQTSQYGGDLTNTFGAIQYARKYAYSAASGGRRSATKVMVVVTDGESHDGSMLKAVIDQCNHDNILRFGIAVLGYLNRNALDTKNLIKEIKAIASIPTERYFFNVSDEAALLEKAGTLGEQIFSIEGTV
Format: binding
Experimental: A 96-well immunoplate (Maxisorp, Nunc) was coated by exposing the surface of its well to 0.1 ml of PBS containing 5 μg/cm^2 of the plate surface, type I collagen (bovine dermal, Cellon), type IV collagen (Sigma), laminin-1 (purified from basement membranes of the Engelbreth-Holm-Swarm mouse tumor, Collaborative Research), fibronectin (human plasma fibronectin, Boehringer Mannheim) or 3.3 μg/ml echovirus-1 or echovirus-7 for 12 h at +4° C. Alternatively peptides and B. jararaca venom (Sigma) were coated at various concentrations on 96-well amine binding plates (Costar) according to the manufacturer's instructions.
Residual protein absorption sites on all wells were blocked with 0.1% heat inactivated bovine serum albumin in PBS for 1 h at +37° C. Echoviruses 1 (Farouk strain) and 7 (Wallace) were obtained from the ATCC. The purified viruses were diluted in PBS containing 0.5 mM MgCl2 and stored at -70° C. until used. Europium labeled rα2I was added at a concentration of 500 ng/ml in PBS, 2 mM MgCl2, 1 mg/ml BSA to the coated wells and incubated for 3 h at +37° C. Wells were then washed three times with PBS, 2mM MgCl2. 0.1 ml Delfia enhancement solution (Wallac) was added to each well and europium signal was measured with fluorometry (Model 1232 Delfia, Wallac). […]

## C[C@@H]1NC(=O)[C@H](CC(N)=O)NC(=O)[C@H](CC(=O)O)NC(=O)[C@H](Cc2c[nH]cn2)NC(=O)[C@H](CCCCN)NC(=O)[C@H](CCCCN)NC(=O)[C@H](CCCNC(=N)N)NC(=O)[C@H]([C@@H](C)O)NC(=O)[C@@H](N)CSSC[C@@H](C(=O)O)NC(=O)[C@H](CCC(N)=O)NC1=O [229ox, CTRKKHDNAQC] (H-CTRKKHDNAQC-OH; disulfide 1-11)
  inhibition of rα2I binding to B. jararaca venom by peptide: about 50%
